The nature of data set [1]: refractive index (Na D-line) (dimensionless). The conditions noted are these: 298.15 K; 101.3 kPa; Liquid; Standard Abbe refractometry.
The conditions of data set [2]: Liquid; for mass density: 298.15 K, 101.33 kPa, Vibrating tube method; for Normal boiling temperature: Ebulliometric method (Recirculating still).

SMILES strings stand for the structures. ± gives the expanded uncertainty stated by the source.

Turning to `COCC(C)OC(C)=O` (stereo not given) [1-methoxy-2-propyl acetate], the refractive index in data set [1] was 1.4 ± 0.0007. In data set [2], the mass density was determined as 963 ± 0.2 kg/m3 and the Normal boiling temperature was determined as 146 ± 1 °C.
In the case of `COCC(C)O` (stereo not given) [1-methoxy-2-propanol], the refractive index in data set [1] stood at 1.4024 ± 0.0007. Further, in data set [2], the mass density stood at 916.5 ± 0.2 kg/m3 and the Normal boiling temperature was found to be 120.2 ± 1 °C.
On to `CO` [methanol], for which, in data set [1], the refractive index is reported as 1.3269 ± 0.0007. Also, in data set [2], the mass density is recorded as 786.9 ± 0.2 kg/m3 and the Normal boiling temperature came out at 64.6 ± 1 °C.
The like results for `CC(C)O` [propan-2-ol] were, in that order, 1.375 ± 0.0007, 781.4 ± 0.2 kg/m3 and 82.5 ± 1 °C.
As to `COC(C)=O` [methyl ethanoate], the refractive index in data set [1] was 1.3596 ± 0.0007. Besides, in data set [2], the mass density amounted to 927.5 ± 0.2 kg/m3 and the Normal boiling temperature amounted to 57.2 ± 1 °C.

The values above are taken from the NIST ThermoML archive (doi:10.1016/j.fluid.2014.01.022).
